Laboratory results published in PMC4109680, “Identification and Preclinical Pharmacology of the γ-Secretase Modulator BMS-869780” (International Journal of Alzheimer's Disease, 2014).

Test system: Aβ1-42 (MEF M146V)
Assay: Aβ1-42 ELISA in MEF dKO cultures cotransfected with APP-CTF and human presenilin-1 M146V allele
Format: cell-based
Procedure: H4-APPsw cell cultures were maintained on Dulbecco's modified Eagle's medium (DMEM) supplemented with L-glutamine (2 mM), fetal bovine serum (10%), and G418 (100 μg/mL). […] Aβ1-42 and Aβ1-40 assays, and Notch inhibition assays, were carried out as described previously. Mouse embryonic fibroblasts deficient in PS1 and PS2 (MEF dKO) were passaged twice per week in DMEM/F-12 medium, consisting of a 1 : 1 mixture of DMEM and F-12 nutrient mixture supplemented with 10% fetal bovine serum, penicillin, and streptomycin. For expression of human presenilin-1 in MEF dKO cells, the full length human presenilin-1 cDNA open reading frame was cloned between the BamHI and XhoI sites of the vector pcDNA5/FRT (Invitrogen), placing presenilin-1 expression under the control of the CMV promoter. […]
IC50 determinations for Aβ1-42 and Aβ1-40 in H4-APPsw cultures in 384-well format were determined using homogeneous time-resolved fluorescence immunoassays as previously described. […] In other experiments using H4-APPsw cultures, Aβ was quantified by ELISA; for Aβ1-42 the combination of monoclonal antibodies was 26D6 and 565-HRP; for Aβ1-40 it was TSD and 26D6-HRP, and for Aβ1-x it was 4G8 and 26D6-HRP. […] For Aβ in transiently transfected PS1/PS2 dKO fibroblasts, Aβ1-42 was quantified using an ELISA kit (WACO), and Aβ1-40 was quantified by ELISA as described above for H4-APPsw cultures. […]

For `COc1cc(Nc2nc3n(n2)CCCC[C@H]3c2ccc(F)cc2)ccc1-n1cnc(Cl)c1` [BMS-869780], the IC50 (Homo sapiens, presenilin-1 M146V allele) was 22 nM and the “Aβ1-42 IC50 in M146V allele relative to wild type presenilin” value (MEF cultures, higher IC50 (less potent) with M146V) was “ca. 3 fold”.
